# Laboratory results from PubChem BioAssay (NCI).
# Values joined by “and” are separate entries in the source; they are usually repeats but may differ in a detail not shown here. Identical values can stand only once.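 All cell lines were grown in 96-well plates and treated with compound for 48 hours. GI50 is the concentration that inhibits growth by half. TGI denotes the concentration required for complete inhibition of growth.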
# Tests used:
# Experiment in all cases: inhibition of tumour cell growth, NCI panel, 48 h
# [1] = tested on: HCC-2998 colon
# [2] = tested on: HT29 colon
# [3] = tested on: SK-OV-3 ovarian
# [4] = tested on: IGROV1 ovarian
# [5] = tested on: SR leukemia
# [6] = tested on: UO-31 renal
# [7] = tested on: MCF7 breast
# [8] = tested on: NCI/ADR-RES ovarian
# [9] = tested on: UACC-257 melanoma
# [10] = tested on: OVCAR-4 ovarian
Structure (SMILES),GI50 [1],TGI [1],GI50 [2],TGI [2],GI50 [3],TGI [3],GI50 [4],TGI [4],GI50 [5],TGI [5],GI50 [6],TGI [6],GI50 [7],TGI [7],GI50 [8],TGI [8],GI50 [9],TGI [9],GI50 [10],TGI [10]
O=c1n(CC2CO2)c(=O)n(CC2CO2)c(=O)n1CC1CO1 (stereo not given),11.4 µM and 21.2 µM,27 µM and 108 µM and > 100 µM,24.4 µM,62.3 µM and > 100 µM,6.86 µM,123 µM and > 100 µM,24.9 µM and 7.31 µM,96 µM and > 100 µM,13.2 µM and 1.5 µM,877 µM and > 100 µM,21.1 µM and 6.42 µM,88.6 µM and 118 µM and > 100 µM,3.9 µM and 1.89 µM,85.7 µM and > 100 µM,16.3 µM and 11.7 µM,237 µM and > 100 µM,15.4 µM,38.4 µM and 109 µM,25.9 µM and 23 µM,112 µM and > 100 µM
C[C@H]1c2cccc(O)c2C(O)=C2C(=O)[C@]3(O)C(O)=C(C(N)=O)C(=O)[C@@H](N(C)C)[C@@H]3[C@@H](O)[C@@H]21,2.97 µM,12.7 µM,3.43 µM,11.9 µM,3.38 µM,14.3 µM,2.86 µM,9.26 µM,1.98 µM,4.67 µM,3.15 µM,15.1 µM,3.51 µM,28.2 µM,6.18 µM,85.3 µM,3.19 µM,13.9 µM,3.34 µM,42.1 µM
Cc1ccc(Cl)cc1Nc1nc(C(F)(F)F)ccc1C(=O)N1CCN(c2ccc(F)cc2)CC1,12.7 µM,26 µM,10.7 µM,23.9 µM,15.6 µM,36.1 µM,0.21 µM,27.2 µM,17.6 µM,80.6 µM,4.49 µM,22.5 µM,11.7 µM,38.7 µM,13.3 µM,36.7 µM,19.7 µM,46.5 µM,10.8 µM,27.9 µM
COc1ccc(C(=O)c2cc(OC)c(C)c(OC)c2)cc1OC(=O)CCl,0.633 µM,19.3 µM,4.21 µM,27.6 µM,0.76 µM,> 100 µM,1.19 µM,> 100 µM,0.0305 µM,13.2 µM,0.628 µM,74 µM,0.361 µM,> 100 µM,0.181 µM,4.38 µM,14 µM,> 95.8 µM,1.22 µM,> 100 µM
COc1cc(C(=O)c2cc(C)c3[nH]c4ccc(Cl)cc4c3c2C)cc(OC)c1OC,0.0548 µM,5.29 µM,0.359 µM,10.7 µM,0.666 µM,34.7 µM,0.0438 µM,12.3 µM,0.0493 µM,97.1 µM,0.12 µM,11.5 µM,0.0352 µM,13.2 µM,0.032 µM,11.9 µM,4.28 µM,32.3 µM,1.16 µM,27.2 µM
CC(C)c1ccc(Nc2ccc3c(OCCCN4CCN(C)CC4)cccc3n2)cc1,1.77 µM,3.35 µM,2.16 µM,4.92 µM,15.7 µM,31.2 µM,16.1 µM,32.6 µM,2.85 µM,10.7 µM,12.9 µM,27.8 µM,3.21 µM,15 µM,15.9 µM,32.9 µM,5.65 µM,16.2 µM,13.9 µM,28.5 µM
Clc1coc2nc3ccccc3c(Nc3ccc4c(c3)OCO4)c12,0.404 µM,2.8 µM,0.601 µM,> 100 µM,2.24 µM,> 100 µM,5.95 µM,> 100 µM,0.201 µM,0.938 µM,6.5 µM,> 100 µM,1.81 µM,> 100 µM,0.512 µM,8.01 µM,9.15 µM,26.1 µM,22.8 µM,> 100 µM
Cn1c(=O)c2c(nc(Nc3cc(=O)[nH]c(=O)[nH]3)n2Cc2ccccc2)n(C)c1=O,> 100 µM,> 100 µM,> 100 µM,> 100 µM,> 100 µM,> 100 µM,> 100 µM,> 100 µM,> 100 µM,> 100 µM,77 µM,> 100 µM,> 100 µM,> 100 µM,> 100 µM,> 100 µM,> 100 µM,> 100 µM,46.9 µM,> 100 µM
O=c1c2ccccc2[se]n1-c1cccnc1,,33.8 µM,,> 100 µM,,> 100 µM,,46.7 µM,,> 100 µM,,93.7 µM,,80.6 µM,,> 100 µM,,57.7 µM,,> 100 µM
O=S(=O)(Nc1cc(F)cc(Cl)c1)c1ccc(-c2cnc(C3CC3)o2)cc1,3.71 µM,18.7 µM,0.515 µM,10.6 µM,4.84 µM,25.9 µM,0.771 µM,17.5 µM,0.462 µM,> 100 µM,2.96 µM,17.6 µM,0.485 µM,23 µM,1.08 µM,15.5 µM,13.6 µM,34.9 µM,5.64 µM,21.9 µM
CC(SC(C)C(=O)N/N=C/c1cccc(Cl)c1)C(=O)N/N=C\c1cccc(Cl)c1 (stereo not given),8 µM,75.8 µM,11.6 µM,32.1 µM,13 µM,31.2 µM,18.4 µM,69.3 µM,3.53 µM,11.1 µM,14.8 µM,94.4 µM,5.16 µM,18.6 µM,71.7 µM,> 100 µM,32.3 µM,> 100 µM,1.63 µM,3.35 µM
C=C(F)C(=O)N1CCN(c2nc(OC[C@@H]3CCCN3C)nc3c2CCN(c2cccc4cccc(Cl)c24)C3)C[C@@H]1CC#N,1.2 µM,2.66 µM,0.699 µM,2.42 µM,2.17 µM,4.94 µM,1.31 µM,3.2 µM,0.657 µM,2.6 µM,1.13 µM,2.57 µM,1.05 µM,2.96 µM,0.601 µM,3.19 µM,1.57 µM,3.1 µM,0.994 µM,3.3 µM
Oc1[nH]c2ccccc2c1N=Nc1ccccc1Cl,,> 100 µM,,> 100 µM,,64.5 µM,,> 100 µM,,34.3 µM,,> 100 µM,,> 100 µM,,> 100 µM,,> 100 µM,,14.6 µM
NC(=NCCCOc1ccc(Cl)cc1)Nc1ccc(C(F)(F)F)cc1,1.2 µM,2.64 µM,1.88 µM,5.55 µM,4.68 µM,18.1 µM,1.47 µM,4.12 µM,1.77 µM,5.95 µM,1.85 µM,7.37 µM,1.72 µM,4.85 µM,2.35 µM,7.27 µM,1.72 µM,3.56 µM,2.15 µM,8.01 µM
Oc1ccc(Cl)cc1Cc1cc(Cl)cc(Cl)c1O,6.52 µM,18.9 µM,19.8 µM,43.9 µM,2.93 µM,13.1 µM,6.31 µM,28.9 µM,5.02 µM,27.4 µM,3.48 µM,15.2 µM,3.51 µM,20.3 µM,3.29 µM,10 µM,5.01 µM,32.5 µM,3.48 µM,23.3 µM
CC(C)=C[C@@H]1C[C@H](C)[C@H]2CC[C@H](C)C3=C2[C@](O)(OC3=O)[C@]1(C)O,> 100 µM,> 100 µM,> 100 µM,> 100 µM,> 100 µM,> 100 µM,> 100 µM,> 100 µM,> 100 µM,> 100 µM,> 100 µM,> 100 µM,71.5 µM,> 100 µM,> 100 µM,> 100 µM,> 100 µM,> 100 µM,> 100 µM,> 100 µM
C#Cc1cccc(Nc2ncnc3cc(OC)c(OCCCCCCC(=O)NO)cc23)c1,0.217 µM,1.34 µM,0.253 µM,5.33 µM,0.208 µM,1.03 µM,0.0864 µM,0.476 µM,0.0219 µM,2.09 µM,0.141 µM,2.69 µM,0.19 µM,3.5 µM,0.917 µM,6.91 µM,0.123 µM,1.12 µM,0.374 µM,5.34 µM
COC(=O)/C=C/c1cc(O)c2oc(-c3ccc(O)c(O)c3)c(C(=O)OC)c2c1,2.09 µM,11.2 µM,3.24 µM,11.5 µM,1.13 µM,15.6 µM,0.543 µM,11.5 µM,0.039 µM,> 24.3 µM,1.11 µM,10.6 µM,0.286 µM,9.75 µM,0.134 µM,6.63 µM,2.83 µM,16.5 µM,0.901 µM,12 µM
CCCCc1c(OC)cc(O)c2c1C(=O)c1[nH]c(C(=O)O)c(O)c(=O)c1C2=O,,> 100 µM,,> 100 µM,,18.6 µM,,64.2 µM,,29.3 µM,,13.8 µM,,> 100 µM,,93.7 µM,,46.6 µM,,> 100 µM
COc1ccc(N2C(=O)C(c3ccccc3)(c3ccccc3)C23C(=O)N(C)c2ccccc23)cc1 (stereo not given),> 100 µM,> 100 µM,> 100 µM,> 100 µM,> 100 µM,> 100 µM,> 100 µM,> 100 µM,> 100 µM,> 100 µM,> 100 µM,> 100 µM,> 100 µM,> 100 µM,> 100 µM,> 100 µM,> 100 µM,> 100 µM,> 100 µM,> 100 µM
